System: sows
Assay: Oral L-arginine supplementation of sows during pregnancy
Format: in vivo, pigs
Protocol: The experiment was performed with 197 sows that had already produced at least one litter. Sows in the control group (n=95) received a normal diet during gestation. Sows in the L-arginine group (n=102) received a normal diet from insemination until day 13 of pregnancy, an L-arginine supplemented diet from day 14 until day 31, again the control diet from day 32 until day 104 and again the L-arginine supplemented diet from day 105 until farrowing.
The L-arginine supplemented diet was the same as the control diet, except for the addition of 10 g L-arginine per kg.

N=C(N)NCCC[C@H](N)C(=O)O [L-arginine]
Sows (litters) with stillborn piglets (41 sows of the L-arginine group, same percentage as control): 47.1% | Average number of stillborn piglets in litters with stillborn piglets (not significantly different from control): 1.86±0.22 | Birth weight NBA corrected for LS (piglets born alive, corrected for litter size): 1597 ± 24 g | Birth weight NBA (piglets born alive, not corrected for litter size): 1584 ± 27 g | Total number born + mummies (piglets per litter, corrected for parity, L-arginine diet day 14-31 and day 105 until farrowing, p<0.05 vs control): 12.74 ± 0.31 | Total number born (TNB) (piglets per litter, L-arginine diet day 14-31 and day 105 until farrowing, p<0.05 vs control): 12.69 ± 0.31 | Number born alive (NBA) (piglets per litter, L-arginine diet day 14-31 and day 105 until farrowing, p=0.055 vs control): 11.77 ± 0.30^+ | Birth weight TNB corrected for LS (piglets, total number born, corrected for litter size): 1578 ± 23 g | Birth weight TNB (piglets, total number born, not corrected for litter size): 1563 ± 27 g | Farrowing rate (sows, diet with 10 g L-arginine per kg added, day 14-31 and day 105 until farrowing, 87/102): 85% | Effect on litter size (total number born and number born alive), piglets extra (versus control group): ~1 piglet

Source: US8303979B2, “Dietary modifications to improve fertility” (Nutreco Nederland B.V., priority 2001, dated 2012)
